Numbered stars: 1 amine (or outer) side, 2 acyl side, 3 side chain; on linkers, the order of the positions; unused ones are H or OH. Square brackets hold non-standard residues; d marks the D form. Side chains are listed from the residue outwards. Peptide text beside a SMILES is read from it. * marks the point of attachment. C18 diacid = O=C(O)CCCCCCCCCCCCCCCCC(=O)*; γGlu = O=C(O)[C@H](CCC(=O)[*:2])N[*:1]; AEEA = NCCOCCOCC(=O)O; Aib = CC(C)(N)C(=O)O
What was measured:
human GLP-1 receptor = target: T1, human GLP-1 receptor (Homo sapiens, UniProt P43220); test: GLP-1 receptor binding, 125I-GLP-1 displacement SPA on isolated membranes; conditions: displacement of 125I-GLP-1 from membranes; read-out: IC50 GLP-1R
T1 construct: expressed in transfected cells; host or cells: BHK cells (parent BHKTS13), clone FCW467-12A/KZ10-1, with CRE luciferase
T1 sequence (P43220 24-463): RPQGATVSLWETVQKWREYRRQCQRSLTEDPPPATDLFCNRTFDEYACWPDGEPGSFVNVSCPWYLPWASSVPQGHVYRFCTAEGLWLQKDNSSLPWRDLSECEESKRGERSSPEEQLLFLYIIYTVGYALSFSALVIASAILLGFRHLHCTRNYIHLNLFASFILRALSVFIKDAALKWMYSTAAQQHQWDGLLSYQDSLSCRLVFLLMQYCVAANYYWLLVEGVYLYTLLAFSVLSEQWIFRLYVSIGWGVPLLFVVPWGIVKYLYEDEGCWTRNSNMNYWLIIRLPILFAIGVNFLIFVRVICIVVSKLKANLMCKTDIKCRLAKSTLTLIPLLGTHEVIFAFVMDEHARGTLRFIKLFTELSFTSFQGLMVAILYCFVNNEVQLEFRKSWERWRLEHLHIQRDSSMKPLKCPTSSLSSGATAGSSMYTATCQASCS
Protocol: The purpose of this assay was to test the in vitro receptor binding activity of the glucagon derivatives of the invention. The receptor binding is a measure of affinity of a compound for the human GLP-1 receptor.
The receptor binding of each compound to the human GLP-1 receptor was measured in a displacement binding assay. In this type of assay a labelled ligand (in this case 125I-GLP-1) is bound to the receptor. Each derivative was added in a series of concentrations to isolated membranes containing the human GLP-1 receptor and displacement of the labelled ligand was monitored. The receptor binding was reported as the concentration at which half of the labelled ligand was displaced from the receptor, the IC50 value.
In order to test the binding of the derivatives to albumin, the assay may be performed in a very low concentration of serum albumin (max. 0.001% final assay concentration) as well as in the presence of a higher concentration of serum albumin (2.0% final assay concentration). An increase of the IC50 value, in the presence of serum albumin indicates an affinity to serum albumin and represents a method to predict a protracted pharmacokinetic profile of the test substance in animal models.
The following chemicals were used in the assay: DMEM w/o phenol red (Gibco 11880-028), Pen/strep (Invitrogen 15140-122), G418 (Invitrogen 10131-027), 1 M Hepes (Gibco 15630), EDTA (Invitrogen 15575-038), PBS (Invitrogen 14190-094), fetal calf serum (Invitrogen 16140-071), EGTA, MgCl2 (Merck 1.05832.1000), Tween 20 (Amresco 0850C335), SPA particles (wheat germ agglutinin (WGA) SPA beads, Perkin Elmer RPNQ0001), [125I]-GLP-1]-(7-36)NH2 (produced in-house), OptiPlate™-96 (Perkin Elmer).
Buffer 1 consisted of 20 mM Na-HEPES plus 10 mM EDTA and pH was adjusted to 7.4.
Buffer 2 consisted of 20 mM Na-HEPES plus 0.1 mM EDTA and pH was adjusted to 7.4.
Assay buffer consisted of 50 mM HEPES supplemented with 5 mM EGTA, 5 mM MgCl2, 0.005% Tween 20 and pH was adjusted to 7.4.
The cells used in this assay (clone FCW467-12A) were BHK cells with BHKTS13 as a parent cell line. The cells express the human GLP-1 receptor.
The cells were grown at 5% CO2 in DMEM, 10% fetal calf serum, 1% Pen/Strep (Penicillin/Streptomycin) and 1.0 mg/ml of the selection marker G418. To make a membrane preparation the cells were grown to approximately 80% confluence. The cells were washed twice in phosphate-buffered saline and harvested. The cells were pelleted using a brief centrifugation and the cell pellet was kept on ice. The cell pellet was homogenised with ULTRA-THURRAX dispersing instrument for 20-30 sec in a suitable amount of buffer 1 (e.g. 10 ml). The homogenate was centrifuged for 15 min. The pellet was re-suspended (homogenised) in 10 ml buffer 2 and centrifuged. This step was repeated once more. The resulting pellet was re-suspended in buffer 2 and the protein concentration was determined. The membranes were aliquoted and stored at minus 80° C.
1. For the receptor binding assay, 50 μl of the assay buffer was added to each well of an assay plate.
2. Test compounds were serially diluted to give the following concentrations: 8×10EE-7 M, 8×10EE-8 M, 8×10EE-9 M, 8×10EE-10 M, 8×10EE-11 M, 8×10EE-12 M and 8×10EE-13 M. Twenty-five μl were added to appropriate wells in the assay plate.
3. Cell membrane aliquots were thawed and diluted to their working concentration. Fifty μl were added to each well in the assay plate.
4. WGA SPA beads were suspended in assay buffer at 20 mg/ml. The suspension was diluted to 10 mg/ml in assay buffer just prior to addition to the assay plate. Fifty μl were added to each well in the assay plate.
5. The incubation was started by adding 25 μl of 480 pM solution of [125I]-GLP-1]-(7-36)NH2 to each well of the assay plate. A 25 μl aliquot was reserved for measuring total counts/well.
6. The assay plate was incubated for 2 h at 30° C.
7. The assay plate was centrifuged for 10 min.
8. The assay plate was read in a Perkin Elmer TopCount NXT instrument. […]

[1] = Thioflavin T (ThT) fibrillation assay for physical stability; format: physicochemical; conditions: 250 μM in 10 mM HEPES buffer, pH 7.5, 37° C., shaking 960 rpm
Text: The purpose of this assay was to assess the physical stability of the glucagon derivatives of the invention in aqueous solutions.
Low physical stability of a peptide may lead to amyloid fibril formation, which is observed as well-ordered, thread-like macromolecular structures in the sample, which eventually may lead to gel formation. This has traditionally been measured by visual inspection of the sample. However, that kind of measurement is very subjective and depending on the observer. Therefore, the application of a small molecule indicator probe is much more advantageous. Thioflavin T (ThT) is such a probe and has a distinct fluorescence signature when binding to fibrils [Naiki et al; Anal. Biochem. 1989 177 244-249; LeVine; Methods. Enzymol. 1999 309 274-284].
The time course for fibril formation can be described by a sigmoidal curve with the following expression [Nielsen et al; Biochemistry 2001 40 6036-6046]:
Here, as depicted in FIG. 1, F is the ThT fluorescence at the time t. The constant t0 is the time needed to reach 50% of maximum fluorescence. The two important parameters describing fibril formation are the lag-time calculated by t0−2τ and the apparent rate constant kapp 1/τ.
Samples were prepared freshly before each assay. Each sample composition is described in the legends. The pH of the sample was adjusted to the desired value using appropriate amounts of concentrated NaOH and HCl. Thioflavin T was added to the samples from a stock solution in H2O to a final concentration of 1 μM.
Sample aliquots of 200 μl (250 μM of the glucagon derivative/analogue in 10 mM HEPES buffer, pH 7.5) were placed in a 96 well microtiter plate (Packard OptiPlate™-96, white polystyrene). Usually, four or eight replica of each sample (corresponding to one test condition) were placed in one column of wells. The plate was sealed with Scotch Pad (Qiagen).
Incubation at given temperature, shaking and measurement of the ThT fluorescence emission were done in a Fluoroskan Ascent FL fluorescence plate reader (Thermo Labsystems). The temperature was set to 37° C. and the plate was incubated with orbital shaking adjusted to 960 rpm with an amplitude of 1 mm. Fluorescence measurement was done using excitation through a 444 nm filter and measurement of emission through a 485 nm filter.
Each run was initiated by incubating the plate at the assay temperature for 10 min. The plate was measured every 20 minutes for a desired period of time. Between each measurement, the plate was shaken and heated as described.
After completion of the ThT assay the four or eight replica of each sample was pooled and centrifuged at 20000 rpm for 30 minutes at 18° C. The supernatant was filtered through a 0.22 μm filter and an aliquot was transferred to a HPLC vial.
The concentration of peptide in the initial sample and in the filtered supernatant was determined by reverse phase HPLC using an appropriate standard as reference. The percentage fraction the concentration of the filtered sample constituted of the initial sample concentration was reported as the recovery.
The measurement points were saved in Microsoft Excel format for further processing and curve drawing and fitting was performed using GraphPad Prism. The background emission from ThT in the absence of fibrils was negligible. The data points were typically a mean of four or eight samples.
The data set may be fitted to Eq. (1).

Row | IC50 (human GLP-1 receptor) | THT assay Lag time (Ex. 76) [1] | SMILES
1 | 0.2 nM | 45 h | CC(C)C[C@H](NC(=O)[C@H](Cc1c[nH]c2ccccc12)NC(=O)[C@H](C)NC(=O)[C@@H](NC(=O)[C@H](Cc1ccccc1)NC(=O)[C@H](CCC(=O)O)NC(=O)[C@H](CCCNC(=N)N)NC(=O)[C@H](C)NC(=O)[C@H](C)NC(=O)[C@H](CCCCN)NC(=O)[C@H](CCCCNC(=O)CC[C@H](NC(=O)CC[C@H](NC(=O)COCCOCCNC(=O)COCCOCCNC(=O)CC[C@H](NC(=O)CCCCCCCCCCCCCCCCC(=O)O)C(=O)O)C(=O)O)C(=O)O)NC(=O)[C@H](CC(=O)O)NC(=O)[C@H](CC(C)C)NC(=O)[C@H](Cc1ccc(O)cc1)NC(=O)[C@H](CCCCN)NC(=O)[C@H](CO)NC(=O)[C@H](CC(C)C)NC(=O)[C@H](CC(=O)O)NC(=O)[C@H](CO)NC(=O)[C@@H](NC(=O)[C@H](Cc1ccccc1)NC(=O)[C@@H](NC(=O)CNC(=O)[C@H](CCC(N)=O)NC(=O)C(C)(C)NC(=O)[C@@H](N)Cc1c[nH]cn1)[C@@H](C)O)[C@@H](C)O)C(C)C)C(=O)N[C@@H](CC(C)C)C(=O)N[C@@H](CC(N)=O)C(=O)N[C@H](C(N)=O)[C@@H](C)O [Example 17, N^ε29-[(4S)-4-carboxy-4-[[(4S)-4-carboxy-4-[[2-[2-[2-[[2-[2-[2-[[(4S)-4-carboxy-4-(17-carboxyheptadecanoylamino)butanoyl]amino]ethoxy]ethoxy]acetyl]amino]ethoxy]ethoxy]acetyl]amino]butanoyl]amino]butanoyl]-[Aib2,Leu10,Lys16,Lys17,Ala18,Arg20,Glu21,Ala24, Leu27]-Glucagon amide] (H-H[Aib]QGTFTSDLSKYLDK([γGlu-γGlu-AEEA-AEEA-γGlu-C18 diacid])KAAREFVAWLLNT-NH2)
2 | 0.2 nM | 28 h | CC(C)C[C@H](NC(=O)[C@H](Cc1ccc(O)cc1)NC(=O)[C@H](CCCCN)NC(=O)[C@H](CO)NC(=O)[C@H](CC(C)C)NC(=O)[C@H](CC(=O)O)NC(=O)[C@H](CO)NC(=O)[C@@H](NC(=O)[C@H](Cc1ccccc1)NC(=O)[C@@H](NC(=O)CNC(=O)[C@H](CCC(N)=O)NC(=O)C(C)(C)NC(=O)[C@@H](N)Cc1c[nH]cn1)[C@@H](C)O)[C@@H](C)O)C(=O)N[C@@H](CCC(=O)O)C(=O)N[C@@H](CO)C(=O)N[C@@H](CCCCN)C(=O)N[C@@H](C)C(=O)N[C@@H](C)C(=O)N[C@@H](CCCNC(=N)N)C(=O)N[C@@H](CCC(=O)O)C(=O)N[C@@H](Cc1ccccc1)C(=O)N[C@H](C(=O)N[C@@H](CCC(N)=O)C(=O)N[C@@H](Cc1c[nH]c2ccccc12)C(=O)N[C@@H](CC(C)C)C(=O)N[C@@H](CC(C)C)C(=O)N[C@@H](CCCCNC(=O)CC[C@H](NC(=O)CC[C@H](NC(=O)COCCOCCNC(=O)COCCOCCNC(=O)CC[C@H](NC(=O)CCCCCCCCCCCCCCCCC(=O)O)C(=O)O)C(=O)O)C(=O)O)C(=O)N[C@H](C(N)=O)[C@@H](C)O)C(C)C [Example 24, N^ε28-[(4S)-4-carboxy-4-[[(4S)-4-carboxy-4-[[2-[2-[2-[[2-[2-[2-[[(4S)-4-carboxy-4-(17-carboxyheptadecanoylamino)butanoyl]amino]ethoxy]ethoxy]acetyl]amino]ethoxy]ethoxy]acetyl]amino]butanoyl]amino]butanoyl]-[Aib2,Leu10,Glu15,Lys17,Ala18,Arg20,Glu21,Leu27, Lys28]-Glucagon amide] (H-H[Aib]QGTFTSDLSKYLESKAAREFVQWLLK([γGlu-γGlu-AEEA-AEEA-γGlu-C18 diacid])T-NH2; N-terminus assumed)

— US9474790B2, “Stable, protracted GLP-1/glucagon receptor co-agonists for medical use” (Novo Nordisk A/S, priority 2013, dated 2016)
